Earlier results as cited in PMC9318694 (Molecules, 2022).
Read-outs that look alike come from different tables or passages of the source.

Biological target: D2R (Homo sapiens, UniProt P14416)
Conditions: read-out: KI, cited from earlier work
[1] = Table S1, data set of actives, radio-ligand binding assays, ref ChEMBL, [50]-[70]

Sequence of D2R (P14416 whole entry): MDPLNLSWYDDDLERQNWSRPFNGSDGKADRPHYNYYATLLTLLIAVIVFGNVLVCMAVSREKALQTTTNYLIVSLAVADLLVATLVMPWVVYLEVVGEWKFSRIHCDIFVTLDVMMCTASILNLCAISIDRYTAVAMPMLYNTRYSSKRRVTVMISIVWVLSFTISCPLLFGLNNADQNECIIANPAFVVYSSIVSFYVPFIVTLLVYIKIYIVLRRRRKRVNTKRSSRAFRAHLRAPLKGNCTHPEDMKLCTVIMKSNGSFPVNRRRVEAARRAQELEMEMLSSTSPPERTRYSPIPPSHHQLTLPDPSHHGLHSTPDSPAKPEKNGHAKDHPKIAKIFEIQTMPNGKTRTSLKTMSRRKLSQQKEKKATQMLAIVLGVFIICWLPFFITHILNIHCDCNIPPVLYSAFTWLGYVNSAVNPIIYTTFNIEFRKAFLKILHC

| SMILES | Ki [1] [nM] | other results |
| --- | --- | --- |
| C=CCN1C[C@H](C(=O)N(CCCN(C)C)C(=O)NCC)C[C@@H]2c3cccc4[nH]cc(c34)C[C@H]21 [Compound 3, Cabergoline] | 0.7 |  |
| OC1CCc2ccc(N=CN3CCc4ccccc4C3)cc21 (stereo not drawn) [Compound S68, 6-(3,4-dihydro-1H-isoquinolin-2-ylmethylideneamino)-2,3-dihydro-1H-inden-1-ol] |  | Ki (Table S2, data set of inactives, radio-ligand binding (RLB) assays, ref ChEMBL, [71]-[92]): > 300000 nM |
| CCCN(CCCCNC(=O)c1ccc(OCCCc2cn(CCCCCCCCn3cc(CCCOc4ccc(C(=O)NCCCCN(CCC)C5Cc6ccccc6C5)cc4OC)nn3)nn2)c(OC)c1)C1Cc2ccccc2C1 [SC2, 4,4'-(((octane-1,8-diylbis(1H-1,2,3-triazole-1,4-diyl))bis(propane-3,1-diyl))bis(oxy))bis(N-(4-((2,3-dihydro-1H-inden-2-yl)(propyl)amino)butyl)-3-methoxybenzamide)] | 16 |  |
| CCCCn1cc(CCCOc2ccc(C(=O)NCCCCN(CCC)C3Cc4ccccc4C3)cc2OC)nn1 [SC3, 4-(3-(1-butyl-1H-1,2,3-triazol-4-yl)propoxy)-N-(4-((2,3-dihydro-1H-inden-2-yl)(propyl)amino)butyl)-3-methoxybenzamide] | 12 |  |
| O=C1NCCc2ccc(OCCCN3CCN(c4cccc(Cl)c4Cl)CC3)cc21 [SC5, 7-(3-(4-(2,3-dichlorophenyl)piperazin-1-yl)propoxy)-3,4-dihydroisoquinolin-1(2H)-one] | 18 |  |
| Clc1cccc(C2CCN(CCCCOc3ccc4scnc4c3)CC2)c1Cl [SC6, 5-(4-(4-(2,3-dichlorophenyl)piperidin-1-yl)butoxy)benzo[d]thiazole] |  | Ki: 42 nM |
| Clc1cccc(C2CCN(CCCOc3ccc4scnc4c3)CC2)c1Cl [SC7, 5-(3-(4-(2,3-dichlorophenyl)piperidin-1-yl)propoxy)benzo[d]thiazole] | 75 |  |
| Clc1cccc(N2CCN(CCCOc3ccc4scnc4c3)CC2)c1Cl [SC8, 5-(3-(4-(2,3-dichlorophenyl)piperazin-1-yl)propoxy)benzo[d]thiazole] | 30 |  |
| C#CC1=CC[C@H](N(CCC)CCCCNC(=O)c2cc3ccccn3n2)CC1 [SC12, (R)-N-(4-((4-ethynylcyclohex-3-en-1-yl)(propyl)amino)butyl)pyrazolo[1,5-a]pyridine-2-carboxamide] |  | Ki: 5.5 nM |
| C#CC1=CC[C@H](N(CCC)CCCCNC(=O)c2cnn3ccccc23)CC1 [SC13, (R)-N-(4-((4-ethynylcyclohex-3-en-1-yl)(propyl)amino)butyl)pyrazolo[1,5-a]pyridine-3-carboxamide] |  | Ki: 1.1 nM |
| C#CC1=CC[C@H](N(CCC)CCCCNC(=O)c2ccc(OCCCc3cnn(CCCC)n3)c(OC)c2)CC1 [SC14, (R)-4-(3-(2-butyl-2H-1,2,3-triazol-4-yl)propoxy)-N-(4-((4-ethynylcyclohex-3-en-1-yl)(propyl)amino)butyl)-3-methoxybenzamide] | 4.2 |  |
| C#CC1=CC[C@H](N(CCC)CCCCNC(=O)c2cc3ccccc3s2)CC1 [SC15, (R)-N-(4-((4-ethynylcyclohex-3-en-1-yl)(propyl)amino)butyl)benzo[b]thiophene-2-carboxamide] | 3.1 |  |
| CCCN(CCC)[C@@H]1Cc2cccc3nc(O)n(c23)C1 [SC17, (R)-5-(dipropylamino)-5,6-dihydro-4H-imidazo[4,5,1-ij]quinolin-2-ol] | 11.4 |  |
| Oc1ccc2c(c1)O[C@@H](CNCc1cccc(I)c1)CC2 [SC21, (R)-2-(((3-iodobenzyl)amino)methyl)chroman-7-ol] | 2.06 |  |
| Oc1ccc2c(c1)O[C@@H](CNCc1ccc(OCCCCF)cc1)CC2 [SC22, (R)-2-(((4-(4-fluorobutoxy)benzyl)amino)methyl)chroman-7-ol] | 5.6 |  |
| Oc1ccc2c(c1)O[C@@H](CNCCN1CCN(c3ccc(OCCF)cc3)CC1)CC2 [SC23, (R)-2-(((2-(4-(4-(2-fluoroethoxy)phenyl)piperazin-1-yl)ethyl)amino)methyl)chroman-7-ol] | 6.67 |  |
| CC(C)CCN1CCN2c3cccc4[nH]cc(c34)CC2C1 (stereo not drawn) [SC25, 8-isopentyl-6,6a,7,8,9,10-hexahydro-4H-pyrazino[1,2-a]pyrrolo[4,3,2-de]quinoline] | 24 |  |
| c1cc2c3c(c[nH]c3c1)CC1CN(CC3CCCCC3)CCN21 (stereo not drawn) [SC26, 8-(cyclohexylmethyl)-6,6a,7,8,9,10-hexahydro-4H-pyrazino[1,2-a]pyrrolo[4,3,2-de]quinoline] | 53.7 |  |
| COc1ccccc1N1CCN(CCCCCNC(=O)c2sc3nc(OC)c(Cl)c(C)c3c2N)CC1 [SC27, 3-amino-5-chloro-6-methoxy-N-(5-(4-(2-methoxyphenyl)piperazin-1-yl)pentyl)-4-methylthieno[2,3-b]pyridine-2-carboxamide] | 3.5 |  |
| CC(C)(C)OC(=O)NCCCCCN1CCN(c2cccc(Cl)c2Cl)CC1 [SC28, tert-butyl (5-(4-(2,3-dichlorophenyl)piperazin-1-yl)pentyl)carbamate] | 42.6 |  |

| SMILES | Ki [1] [nM] | other results |
| --- | --- | --- |
| Cc1cc(C)c2c(N)c(C(=O)NCCCCCN3CCN(c4cccc(Cl)c4Cl)CC3)sc2n1 [SC29, 3-amino-N-(5-(4-(2,3-dichlorophenyl)piperazin-1-yl)pentyl)-4,6-dimethylthieno[2,3-b]pyridine-2-carboxamide] | 11.2 |  |
| COc1ccccc1N1CCN(CCCNC(=O)OC(C)(C)C)CC1 [SC30, tert-butyl (3-(4-(2-methoxyphenyl)piperazin-1-yl)propyl)carbamate] | 15.8 |  |
| COc1ccccc1N1CCN(CCCCCNC(=O)OC(C)(C)C)CC1 [SC31, tert-butyl (5-(4-(2-methoxyphenyl)piperazin-1-yl)pentyl)carbamate] | 12 |  |
| C1=C(c2ccccc2)CCN(C[C@@H]2CCC=C(c3ccccc3)C2)C1 [SC32, (R)-4-phenyl-1-((2,3,4,5-tetrahydro-[1,1'-biphenyl]-3-yl)methyl)-1,2,3,6-tetrahydropyridine] |  | Ki: 8.4 nM |
| Oc1ccc(C2=CCC[C@@H](CN3CC=C(c4ccccc4)CC3)C2)cc1 [SC33, (R)-3'-((4-phenyl-3,6-dihydropyridin-1(2H)-yl)methyl)-2',3',4',5'-tetrahydro-[1,1'-biphenyl]-4-ol] |  | Ki: 0.62 nM |
| C#CC1=CC[C@@H](N(CCC)CCCCNC(=O)c2ccc(OCCCc3cn(CCCC)nn3)c(OC)c2)CO1 [SC34, (R)-4-(3-(1-butyl-1H-1,2,3-triazol-4-yl)propoxy)-N-(4-((6-ethynyl-3,4-dihydro-2H-pyran-3-yl)(propyl)amino)butyl)-3-methoxybenzamide] | 1.6 |  |
| C#CC1=CC[C@H](N(CCC)CCCCNC(=O)c2ccc(OCCCc3cn(CCCC)nn3)c(OC)c2)CO1 [SC35, (S)-4-(3-(1-butyl-1H-1,2,3-triazol-4-yl)propoxy)-N-(4-((6-ethynyl-3,4-dihydro-2H-pyran-3-yl)(propyl)amino)butyl)-3-methoxybenzamide] | 4.9 |  |
| CCCCn1cc(CCCOc2ccc(C(=O)NCCCCN(CCC)CCc3ccc(O)c4[nH]c(=O)ccc34)cc2OC)nn1 [SC36, 4-(3-(1-butyl-1H-1,2,3-triazol-4-yl)propoxy)-N-(4-((2-(8-hydroxy-2-oxo-1,2-dihydroquinolin-5-yl)ethyl)(propyl)amino)butyl)-3-methoxybenzamide] | 24 |  |
| CCCCn1cc(CCCOc2ccc(C(=O)NCCCCN(CCC)[C@H]3CCc4c(O)cccc4C3)cc2OC)nn1 [SC37, (S)-4-(3-(1-butyl-1H-1,2,3-triazol-4-yl)propoxy)-N-(4-((5-hydroxy-1,2,3,4-tetrahydronaphthalen-2-yl)(propyl)amino)butyl)-3-methoxybenzamide] | 0.47 |  |
| CCCN(CCC)[C@@H]1Cc2cccc3c2n(c(=O)n3CCC)C1 [SC38, (R)-5-(dipropylamino)-1-propyl-5,6-dihydro-4H-imidazo[4,5,1-ij]quinolin-2(1H)-one] | 2.59 |  |
| CCCCn1c(=O)n2c3c(cccc31)C[C@@H](NC)C2 [SC39, (R)-1-butyl-5-(methylamino)-5,6-dihydro-4H-imidazo[4,5,1-ij]quinolin-2(1H)-one] | 12.8 |  |
| CCCn1c(=O)n2c3c(cccc31)C[C@@H](NC)C2 [SC40, (R)-5-(methylamino)-1-propyl-5,6-dihydro-4H-imidazo[4,5,1-ij]quinolin-2(1H)-one] | 13.2 |  |
| CCCN[C@@H]1Cc2cccc3c2n(c(=O)n3CCC)C1 [SC41, (R)-1-propyl-5-(propylamino)-5,6-dihydro-4H-imidazo[4,5,1-ij]quinolin-2(1H)-one] | 8.08 |  |
| CCCN[C@@H]1Cc2cccc3c2n(c(=O)n3CCCCOCCCCc2ccccc2)C1 [SC42, (R)-1-(4-(4-phenylbutoxy)butyl)-5-(propylamino)-5,6-dihydro-4H-imidazo[4,5,1-ij]quinolin-2(1H)-one] | 37.2 |  |
| CCCN(CCC)[C@@H]1Cc2cccc3c2n(c(=O)n3CCCCNC(=O)c2cc3ccccc3[nH]2)C1 [SC43, (R)-N-(4-(5-(dipropylamino)-2-oxo-5,6-dihydro-4H-imidazo[4,5,1-ij]quinolin-1(2H)-yl)butyl)-1H-indole-2-carboxamide] |  | Ki: 86.8 nM |
| CN[C@@H]1Cc2cccc3c2n(c(=O)n3CCCCOc2ccc3c(c2)NC(=O)CC3)C1 [SC44, (R)-5-(methylamino)-1-(4-((2-oxo-1,2,3,4-tetrahydroquinolin-7-yl)oxy)butyl)-5,6-dihydro-4H-imidazo[4,5,1-ij]quinolin-2(1H)-one] | 338 |  |
| CN[C@@H]1Cc2cccc3c2n(c(=O)n3CCOCCOCCOCCCCc2ccccc2)C1 [SC45, (R)-5-(methylamino)-1-(2-(2-(2-(4-phenylbutoxy)ethoxy)ethoxy)ethyl)-5,6-dihydro-4H-imidazo[4,5,1-ij]quinolin-2(1H)-one] | 34.7 |  |
| O=c1ccc2c(N3CCCN(CCCCOc4ccn5nccc5c4)CC3)ccc(O)c2[nH]1 [SC46, 8-hydroxy-5-(4-(4-(pyrazolo[1,5-a]pyridin-5-yloxy)butyl)-1,4-diazepan-1-yl)quinolin-2(1H)-one] | 78 |  |
| CCCN(CCCCNC(=O)c1cc2ccccc2[nH]1)[C@@H]1Cc2cccc3c2n(c(=O)n3CCC)C1 [SC47, (R)-N-(4-((2-oxo-1-propyl-1,2,5,6-tetrahydro-4H-imidazo[4,5,1-ij]quinolin-5-yl)(propyl)amino)butyl)-1H-indole-2-carboxamide] |  | Ki: 8.43 nM |
